We go through 5 compounds from patent US6184333A, “Low-toxicity, high-temperature polyimides” (Maverick Corporation, priority 1999, dated 2001).

For series [1] the following is noted: cited from earlier work; for Carcinogenicity: animals, where stated; for Toxicity: in vivo.
The test system of series [2] is rat. Description: Acute oral LD50. The following applies: vs. MDA. In kind it is in vivo. The source says: Except for BAX, the advantages of these diamines include low cost (<$50/pound) as well as low toxicity. […] (ADD IN FNOTE 19) Table I compares the toxicological data of MDA vs. That of Bisaninine-P and Bisaniline-M. In addition, the Ames Mutagenicity Assays for Bisaniline-P and Bisaniline-M were negative with and without metabolic activation. (ID)

Series [3] is described as follows: Solubility in methanol. In kind it is physicochemical. The text has this: A matrix of polyirnide copolymers was synthesized by using Bisaniline-P, Bisaniline-M, and paraphenylenediamine (PPDA). Partial molar substitutions of PPDA (up to 50 mole percent) were used in order to increase glass transition temperatuer and/or thermal oxidative stability. Pre-polymer molecular weight was also adjusted to favorably impact processing parameters as well as the final Tg. Each copolymer was formulated at a molar ratio of 2 NE: 2 BTDE: 3 Diamine. All of the resin systems were synthesized using standard techniques known in the industry. In some of the BIS-P formulations, n-methylpyrrilidinone (NMP) was used as a solvent in addition to methanol. This was done in order to maintain the solubility of the fairly large molecular-weight BIS-P diamine. […] A detailed description of the low-toxicity polyimnide systems that were developed is shown below in Table IV.

Series [4] has as its system rat. Conditions: cited from earlier work.
Series [5] deals with rabbit skin. The following applies: cited from earlier work.
The conditions of series [6]: with and without metabolic activation; cited from earlier work.
Series [7] deals with rat. The following applies: cited from earlier work. This is another data set of the same source.

`CC(C)(c1ccc(Oc2ccc(N)cc2)cc1)c1ccc(Oc2ccc(N)cc2)cc1` [BAPP, 2,2-bis(4-[4-aminophenoxyl]phenyl) propane]: in series [1], the Carcinogenicity result is on record as “non-carcinogenic” and the Toxicity result is on record as “non-toxic”.

As for `CC(C)(c1ccc(N)cc1)c1cccc(C(C)(C)c2ccc(N)cc2)c1` [BIS-M, 4,4'-(1,3-phenylene-bis(1-methylethylidene))bisaniline], the “Acute oral LD50 compared with that of MDA” value in series [2] is “more than ten times higher”. The Solubility in methanol result in series [3] is “readily soluble”. Besides, in series [4], the “Acute Oral LD50” value is 6,240 mg/kg. Also, the “Skin irritation (printed in the Acute Dermal LD50 line)” value in series [5] is “Non-irritating”. The “Ames Mutagenicity Assay” value in series [6] was “negative”.

Regarding `CC(C)(c1ccc(N)cc1)c1ccc(C(C)(C)c2ccc(N)cc2)cc1` [BIS-P, 4,4'-(1,4-phenylene-bis(1-methylethylidene))bisaniline], the “Acute oral LD50 compared with that of MDA” value in series [2] was “more than ten times higher”. In addition, the “Acute Oral LD50” value in series [4] was > 5,000 mg/kg. Besides, the “Acute Dermal LD50” value in series [7] was > 2,000 mg/kg. Besides, the “Ames Mutagenicity Assay” value in series [6] was “negative”.

For the compound `Nc1ccc(Cc2ccc(N)cc2)cc1` [MDA, 4,4'-methylenedianiline, reference compound], in series [4], the “Acute Oral LD50” value is 347 mg/kg. The “Acute Dermal LD50” value in series [7] is 200 mg/kg. Further, in series [1], the Carcinogenicity result was “known animal carcinogen”; the Toxicity result is “known kidney and liver toxin”. The Human carcinogenicity entry in series [1] (human) is “suspected human carcinogen”.

Turning to `Nc1ccc(N)cc1` [PPDA, para-phenylenediamine], the Carcinogenicity result in series [1] was “no carcinogenic activity in animals”.
